The record followed here is ChEMBL document CHEMBL4813925, “Antibacterial Drimane Sesquiterpenes from Aspergillus ustus” (J Nat Prod, 2021).

Usually MIC99 stands for the lowest concentration that inhibits either 99% of growth or 99% of the strains tested, depending on the study.

In data set [1] the test system is Staphylococcus aureus. As to the kind of experiment: Antibacterial activity against multidrug-resistant Staphylococcus aureus ATCC BAA-44 assessed as bacterial growth inhibition by CLSI protocol based microbroth dilution method. Type of data set: functional. (In general: In broth dilution the organism is exposed to a series of concentrations in liquid medium.)
Data set [2] relates to Enterococcus faecium. As to the kind of experiment: Antibacterial activity against vancomycin-resistant Enterococcus faecium ATCC 700221 assessed as bacterial growth inhibition by CLSI protocol based microbroth dilution method. Type of data set: functional.
Data set [3] concerns Bacillus subtilis. As to the kind of experiment: Antibacterial activity against Bacillus subtilis ATCC 49343 assessed as bacterial growth inhibition by CLSI protocol based microbroth dilution method. The format is functional.
Data set [4] has as its system Bacillus subtilis. As to the kind of experiment: Synergistic antibacterial activity against Bacillus subtilis ATCC 49343 assessed as bacterial growth inhibition in presence of ustusoic-acidB. The format is functional.
In data set [5] the test system is Enterococcus faecium. In words: Synergistic antibacterial activity against vancomycin-resistant Enterococcus faecium ATCC 700221 assessed as bacterial growth inhibition in presence of ustusoic-acidB. The format is functional.
The subject of data set [6] is Staphylococcus aureus. In words: Synergistic antibacterial activity against multidrug-resistant Staphylococcus aureus ATCC BAA-44 assessed as bacterial growth inhibition in presence of ustusoic-acidB. The format is functional.
The subject of data set [7] is Bacillus subtilis. As to the kind of experiment: Synergistic antibacterial activity against Bacillus subtilis ATCC 49343 assessed as coefficient of drug interaction in presence of Stromemycin. Type of data set: functional.
Data set [8] has as its system Enterococcus faecium. As to the kind of experiment: Synergistic antibacterial activity against vancomycin-resistant Enterococcus faecium ATCC 700221 assessed as coefficient of drug interaction in presence of Stromemycin. The format is functional.
The test system of data set [9] is Staphylococcus aureus. As to the kind of experiment: Synergistic antibacterial activity against multidrug-resistant Staphylococcus aureus ATCC BAA-44 assessed as coefficient of drug interaction in presence of Stromemycin. The format is functional.
In data set [10] the test system is Candida albicans. In words: Antifungal activity against Candida albicans ATCC 90027 assessed as fungal growth inhibition by CLSI protocol based microbroth dilution method. Type of data set: functional, organism-based.
Data set [11] relates to HCT-116. In words: Cytotoxicity against human HCT-116 cells by MTT assay. The format is cell-based. In general terms: Formazan colour is commonly taken as a measure of viable cells.
Data set [12] has as its system Bacillus subtilis. In words: Synergistic antibacterial activity against Bacillus subtilis ATCC 49343 assessed as bacterial growth inhibition in presence of Stromemycin. The format is functional.
Data set [13] deals with Enterococcus faecium. In words: Synergistic antibacterial activity against vancomycin-resistant Enterococcus faecium ATCC 700221 assessed as bacterial growth inhibition in presence of Stromemycin. The format is functional.
The test system of data set [14] is Staphylococcus aureus. As to the kind of experiment: Synergistic antibacterial activity against multidrug-resistant Staphylococcus aureus ATCC BAA-44 assessed as bacterial growth inhibition in presence of Stromemycin. Type of data set: functional.
The subject of data set [15] is Bacillus subtilis. In words: Synergistic antibacterial activity against Bacillus subtilis ATCC 49343 assessed as coefficient of drug interaction in presence of ustusoic-acidB. The format is functional.
The subject of data set [16] is Enterococcus faecium. As to the kind of experiment: Synergistic antibacterial activity against vancomycin-resistant Enterococcus faecium ATCC 700221 assessed as coefficient of drug interaction in presence of ustusoic-acidB. Type of data set: functional.
In data set [17] the test system is Staphylococcus aureus. In words: Synergistic antibacterial activity against multidrug-resistant Staphylococcus aureus ATCC BAA-44 assessed as coefficient of drug interaction in presence of ustusoic-acidB. The format is functional.

≈ marks a conversion by molar mass, not a printed value. Calls of active or inactive are those of the source. The calls are words filed in the database; no cut-off is given here.

For the compound `C/C=C/C=C/C=C/C(=O)O[C@@H]1C=C(CO)[C@](O)(C(=O)O)[C@@]2(C)CCCC(C)(C)[C@H]12`, the MIC was more than 128 µg/mL in data set [1] (read-out: MIC), 128 µg/mL (≈ 316 µM) in data set [2] and 64 µg/mL (≈ 158 µM) in data set [3].

As to `O=C(N[C@H](CO)[C@H](O)c1ccc([N+](=O)[O-])cc1)C(Cl)Cl` [CHLORAMPHENICOL], the MIC99 in data set [3] was 125 µg/mL (≈ 387 µM).

For the compound `CCC/C=C/C=C/CCc1cc(OC(=O)c2c(CC/C=C/C=C/CCC)cc(O)c([C@@H]3O[C@H](CO)[C@@H](O)[C@H](O)[C@H]3O)c2O)cc(O)c1C(=O)O`, the MIC was more than 128 µg/mL in [1] (read-out: MIC); more than 128 µg/mL in data set [2]; 64 µg/mL (≈ 91.8 µM) in data set [3]; 8 µg/mL in data set [4]; 32 µg/mL in [5]; 64 µg/mL in data set [6]. Besides, the results for the CI in [7], in data set [8] and in data set [9] were 0.0009, 0.00013 and 0.00014, respectively. Moreover, the outcome in [10] was inactive. The Activity entry in data set [11] is on record as “Non-Toxic”.

With `C/C=C/C=C/C=C/C(=O)O[C@@H]1C=C(C=O)[C@](O)(C(=O)O)[C@@]2(C)CCCC(C)(C)[C@H]12`, the MIC was more than 128 µg/mL in data set [1] (read-out: MIC); 67 µg/mL (≈ 166 µM) in data set [2]; 38 µg/mL (≈ 94.4 µM) in [3]; 8 µg/mL in data set [12]; 32 µg/mL in data set [13]; 64 µg/mL in data set [14]. The CI in data set [15] is recorded as 0.0009; in data set [16], 0.00013; in data set [17] it was 0.00014. Moreover, the result in data set [10] was inactive. The Activity result in [11] was “Non-Toxic”.

`O=C1CN(/N=C/c2ccc([N+](=O)[O-])o2)C(=O)N1` [NITROFURANTOIN]: in data set [2], the MIC99 was determined as 125 µg/mL (≈ 525 µM).

As for `CN[C@H](CC(C)C)C(=O)N[C@H]1C(=O)N[C@@H](CC(N)=O)C(=O)N[C@H]2C(=O)N[C@H]3C(=O)N[C@H](C(=O)N[C@H](C(=O)O)c4cc(O)cc(O)c4-c4cc3ccc4O)[C@H](O)c3ccc(c(Cl)c3)Oc3cc2cc(c3O[C@@H]2O[C@H](CO)[C@@H](O)[C@H](O)[C@H]2O[C@H]2C[C@](C)(N)[C@H](O)[C@H](C)O2)Oc2ccc(cc2Cl)[C@H]1O` [VANCOMYCIN], the MIC in data set [1] (read-out: MIC100) amounted to 125 µg/mL (≈ 86.3 µM).
